Molecular target: T1, Androgen Receptor (AR) protein (Homo sapiens, UniProt P10275, T878A)
T1 construct: endogenous in cells; host or cells: LNCaP
Assay: Androgen Receptor (AR) protein degradation assay in LNCaP cells, western blotting
Type: cell-based
Conditions: 20 h; for inhibition at 0.01 µM: 0.01 μM compound; for inhibition at 0.1 µM: 0.1 μM compound; for inhibition at 1 µM: 1 μM compound
How it was run: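 AR protein level was detected by western blot (ECL) against GAPDH or β-actin controls, with 8 μg lysate protein loaded per lane after BCA quantification. Lysates came from LNCaP cells exposed to test compound for 20 h, following 3 days of growth in RPMI/10% FBS.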

T1 sequence (P10275 whole entry T878A): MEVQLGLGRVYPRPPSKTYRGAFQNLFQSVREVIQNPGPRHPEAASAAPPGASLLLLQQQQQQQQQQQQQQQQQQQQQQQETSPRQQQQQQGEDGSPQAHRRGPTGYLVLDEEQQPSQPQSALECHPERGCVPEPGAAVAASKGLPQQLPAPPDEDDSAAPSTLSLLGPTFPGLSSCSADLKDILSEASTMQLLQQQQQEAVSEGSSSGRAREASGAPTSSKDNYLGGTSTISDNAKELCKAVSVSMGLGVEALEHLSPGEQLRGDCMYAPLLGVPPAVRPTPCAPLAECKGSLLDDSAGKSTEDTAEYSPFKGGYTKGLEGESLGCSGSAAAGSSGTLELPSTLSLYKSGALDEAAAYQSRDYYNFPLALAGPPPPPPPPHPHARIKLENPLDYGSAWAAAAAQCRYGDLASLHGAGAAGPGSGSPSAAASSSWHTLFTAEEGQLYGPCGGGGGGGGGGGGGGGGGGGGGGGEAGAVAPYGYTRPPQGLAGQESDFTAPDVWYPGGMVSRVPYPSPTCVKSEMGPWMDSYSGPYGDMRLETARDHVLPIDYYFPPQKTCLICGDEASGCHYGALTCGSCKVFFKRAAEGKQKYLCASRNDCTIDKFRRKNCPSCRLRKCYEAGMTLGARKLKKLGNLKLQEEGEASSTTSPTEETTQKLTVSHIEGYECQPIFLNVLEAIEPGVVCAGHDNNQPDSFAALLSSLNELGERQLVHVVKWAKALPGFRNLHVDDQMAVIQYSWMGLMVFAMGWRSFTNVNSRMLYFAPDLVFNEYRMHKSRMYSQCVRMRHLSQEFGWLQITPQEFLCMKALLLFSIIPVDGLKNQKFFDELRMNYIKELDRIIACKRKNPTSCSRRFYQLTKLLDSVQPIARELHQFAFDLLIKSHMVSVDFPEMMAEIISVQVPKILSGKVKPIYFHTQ
T1 sequence (Q96SW2 whole entry partner): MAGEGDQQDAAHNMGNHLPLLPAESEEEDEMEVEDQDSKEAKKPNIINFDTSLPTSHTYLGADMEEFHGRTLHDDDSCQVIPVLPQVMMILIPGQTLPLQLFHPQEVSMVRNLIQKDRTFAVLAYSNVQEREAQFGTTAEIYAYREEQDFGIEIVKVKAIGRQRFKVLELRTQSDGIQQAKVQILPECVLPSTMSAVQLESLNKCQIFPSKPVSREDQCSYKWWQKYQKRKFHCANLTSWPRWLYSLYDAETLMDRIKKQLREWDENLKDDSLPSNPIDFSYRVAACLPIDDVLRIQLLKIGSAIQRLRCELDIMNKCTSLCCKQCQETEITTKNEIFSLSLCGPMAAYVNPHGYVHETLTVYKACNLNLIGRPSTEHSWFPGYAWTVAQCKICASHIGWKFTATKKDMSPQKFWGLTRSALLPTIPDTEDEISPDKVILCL

Compound	inhibition at 0.01 µM	inhibition at 0.1 µM	inhibition at 1 µM
N#Cc1ccc(N2CCC(C(=O)Nc3ccc(N4CCC(CN5CCN(C[C@@H]6CCN(c7ccc8c(n7)CN(C7CCC(=O)NC7=O)C8=O)C6)CC5)CC4)cn3)CC2)cc1C(F)(F)F (stereo partly drawn) [Example 37, 1-(4-cyano-3-(trifluoromethyl)phenyl)-N-(5-(4-((4-(((3S)-1-(6-(2,6-dioxopiperidin-3-yl)-5-oxo-6,7-dihydro-5H-pyrrolo[3,4-b]pyridin-2-yl)pyrrolidin-3-yl)methyl)piperazin-1-yl)methyl)piperidin-1-yl)pyridin-2-yl)piperidine-4-carboxamide]	51%	93%	90%
N#Cc1ccc(N2CCC(C(=O)Nc3ccc(N4CCC(CN5CCN(C[C@@H]6CCN(c7cc8c(cc7F)C(=O)N(C7CCC(=O)NC7=O)C8=O)C6)CC5)CC4)cn3)CC2)cc1C(F)(F)F (stereo partly drawn) [Example 38, 1-(4-cyano-3-(trifluoromethyl)phenyl)-N-(5-(4-((4-(((3S)-1-(2-(2,6-dioxopiperidin-3-yl)-6-fluoro-1,3-dioxoisoindolin-5-yl)pyrrolidin-3-yl)methyl)piperazin-1-yl)methyl)piperidin-1-yl)pyridin-2-yl)piperidine-4-carboxamide]	44%	93%	97%
N#Cc1ccc(N2CCC(C(=O)Nc3ccc(N4CCC(CN5CCN(C[C@H]6CCN(c7ccc8c(n7)CN(C7CCC(=O)NC7=O)C8=O)C6)CC5)CC4)cn3)CC2)cc1C(F)(F)F (stereo partly drawn) [Example 39, 1-(4-cyano-3-(trifluoromethyl)phenyl)-N-(5-(4-((4-(((3R)-1-(6-(2,6-dioxopiperidin-3-yl)-5-oxo-6,7-dihydro-5H-pyrrolo[3,4-b]pyridin-2-yl)pyrrolidin-3-yl)methyl)piperazin-1-yl)methyl)piperidin-1-yl)pyridin-2-yl)piperidine-4-carboxamide]	80%	98%	95%
C[C@@H]1CN(CC2CCN(c3ccc(NC(=O)C4CCN(c5ccc(C#N)c(C(F)(F)F)c5)CC4)nc3)CC2)CCN1C1CN(c2ccc3c(c2)C(=O)N(C2CCC(=O)NC2=O)C3=O)C1 (stereo partly drawn) [Example 40, 1-(4-cyano-3-(trifluoromethyl)phenyl)-N-(5-(4-(((3R)-4-(1-(2-(2,6-dioxopiperidin-3-yl)-1,3-dioxoisoindolin-5-yl)azetidin-3-yl)-3-methylpiperazin-1-yl)methyl)piperidin-1-yl)pyridin-2-yl)piperidine-4-carboxamide]	43%	94%	94%
C[C@@H]1CN(C2CN(c3ccc4c(c3)C(=O)N(C3CCC(=O)NC3=O)C4=O)C2)CCN1CC1CCN(c2ccc(NC(=O)C3CCN(c4ccc(C#N)c(C(F)(F)F)c4)CC3)nc2)CC1 (stereo partly drawn) [Example 41, 1-(4-cyano-3-(trifluoromethyl)phenyl)-N-(5-(4-(((2R)-4-(1-(2-(2,6-dioxopiperidin-3-yl)-1,3-dioxoisoindolin-5-yl)azetidin-3-yl)-2-methylpiperazin-1-yl)methyl)piperidin-1-yl)pyridin-2-yl)piperidine-4-carboxamide]	62%	93%	86%
C[C@@H]1CN(C2CCN(c3ccc4c(c3)C(=O)N(C3CCC(=O)NC3=O)C4=O)CC2)CCN1CC1CCN(c2ccc(NC(=O)C3CCN(c4ccc(C#N)c(C(F)(F)F)c4)CC3)nc2)CC1 (stereo partly drawn) [Example 42, 1-(4-cyano-3-(trifluoromethyl)phenyl)-N-(5-(4-(((2R)-4-(1-(2-(2,6-dioxopiperidin-3-yl)-1,3-dioxoisoindolin-5-yl)piperidin-4-yl)-2-methylpiperazin-1-yl)methyl)piperidin-1-yl)pyridin-2-yl)piperidine-4-carboxamide]	65%	96%	94%
C[C@@H]1CN(C2CCN(c3ccc4c(n3)CN(C3CCC(=O)NC3=O)C4=O)CC2)CCN1CC1CCN(c2ccc(NC(=O)C3CCN(c4ccc(C#N)c(C(F)(F)F)c4)CC3)nc2)CC1 (stereo partly drawn) [Example 43, 1-(4-cyano-3-(trifluoromethyl)phenyl)-N-(5-(4-(((2R)-4-(1-(6-(2,6-dioxopiperidin-3-yl)-5-oxo-6,7-dihydro-5H-pyrrolo[3,4-b]pyridin-2-yl)piperidin-4-yl)-2-methylpiperazin-1-yl)methyl)piperidin-1-yl)pyridin-2-yl)piperidine-4-carboxamide]	68%	94%	83%
C[C@@H]1CN(CC2CCN(c3ccc4c(n3)CN(C3CCC(=O)NC3=O)C4=O)CC2)CCN1CC1CCN(c2ccc(NC(=O)C3CCN(c4ccc(C#N)c(C(F)(F)F)c4)CC3)nc2)CC1 (stereo partly drawn) [Example 44, 1-(4-cyano-3-(trifluoromethyl)phenyl)-N-(5-(4-(((2R)-4-((1-(6-(2,6-dioxopiperidin-3-yl)-5-oxo-6,7-dihydro-5H-pyrrolo[3,4-b]pyridin-2-yl)piperidin-4-yl)methyl)-2-methylpiperazin-1-yl)methyl)piperidin-1-yl)pyridin-2-yl)piperidine-4-carboxamide]	80%	98%	93%
C[C@H]1CN(C2CCN(c3ccc4c(n3)CN(C3CCC(=O)NC3=O)C4=O)CC2)CCN1CC1CCN(c2ccc(NC(=O)C3CCN(c4ccc(C#N)c(C(F)(F)F)c4)CC3)nc2)CC1 (stereo partly drawn) [Example 45, 1-(4-cyano-3-(trifluoromethyl)phenyl)-N-(5-(4-(((2S)-4-(1-(6-(2,6-dioxopiperidin-3-yl)-5-oxo-6,7-dihydro-5H-pyrrolo[3,4-b]pyridin-2-yl)piperidin-4-yl)-2-methylpiperazin-1-yl)methyl)piperidin-1-yl)pyridin-2-yl)piperidine-4-carboxamide]	66%	95%	87%
C[C@H]1CN(CC2CCN(c3ccc4c(n3)CN(C3CCC(=O)NC3=O)C4=O)CC2)CCN1CC1CCN(c2ccc(NC(=O)C3CCN(c4ccc(C#N)c(C(F)(F)F)c4)CC3)nc2)CC1 (stereo partly drawn) [Example 46, 1-(4-cyano-3-(trifluoromethyl)phenyl)-N-(5-(4-(((2S)-4-((1-(6-(2,6-dioxopiperidin-3-yl)-5-oxo-6,7-dihydro-5H-pyrrolo[3,4-b]pyridin-2-yl)piperidin-4-yl)methyl)-2-methylpiperazin-1-yl)methyl)piperidin-1-yl)pyridin-2-yl)piperidine-4-carboxamide]	70%	97%	91%
C[C@@H]1CN(CC2CCN(c3ccc(NC(=O)C4CCN(c5ccc(C#N)c(C(F)(F)F)c5)CC4)nc3)CC2)CCN1CC1CCN(c2ccc3c(n2)CN(C2CCC(=O)NC2=O)C3=O)CC1 (stereo partly drawn) [Example 47, 1-(4-cyano-3-(trifluoromethyl)phenyl)-N-(5-(4-(((3R)-4-((1-(6-(2,6-dioxopiperidin-3-yl)-5-oxo-6,7-dihydro-5H-pyrrolo[3,4-b]pyridin-2-yl)piperidin-4-yl)methyl)-3-methylpiperazin-1-yl)methyl)piperidin-1-yl)pyridin-2-yl)piperidine-4-carboxamide]	65%	95%	89%
